Patent US9611257B2, “PRMT5 inhibitors and uses thereof” (Epizyme, Inc., priority 2012, dated 2017)

Biological target: T1, PRMT5/MEP50 (Homo sapiens, UniProt O14744)
T1 construct: Expressed full-length human Flag-PRMT5/6His-MeP50 protein complex was purified; made in house; host or cells: Spodoptera frugiperda (SF9) insect cells, baculovirus (pDEST8)
Assay: PRMT5 Biochemical Assay (PRMT5/MEP50 enzyme assay on peptide substrate, 3H-SAM Flashplate)
Settings: PRMT5/MEP50 4 nM, 3H-SAM 75 nM, peptide 40 nM, 30 min preincubation at 25 degrees Celsius
Procedure: • Mobile phase A: 4 L H2O\1.5 ml TFA; Mobile phase B: 4 L ACN\0.75 ml TFA • Column: HPLC-D: Innovation C18 UPLC Column 2.1×30 mm, 2.6 um • HPLC-E: Xtimate C18 2.1*30 mm*3 um • HPLC-H: Innovation C18 UPLC Column 2.1×30 mm, 2.6 um • Column temperature: 50° C.; Wavelength: 220 nm & 254 nm & 215 nm General HPLC Conditions (Basic) • Mobile phase A: 4 L H2O\2 ml NH4OH; Mobile phase B: Acetonitrile • Column: HPLC-B: XBridge C18 2.1*50 mm, 5 um • HPLC-C: Xbridge shield RP18 2.1*50 mm, 5 u • Column temperature: 30° C.; Wavelength: 220 nm & 254 nm & 215 nm General HPLC Conditions (Neutral) • Mobile phase A: H2O; Mobile phase B: Acetonitrile • Column: HPLC-B: XBridge C18 2.1*50 mm, 5 um • HPLC-C: Xbridge shield RP18 2.1*50 mm, 5 um • Column temperature: 30° C.; Wavelength: 220 nm & 254 nm & 215 nm Method A (0-30AB_6MIN) Flow Rate: 0.8 ml/min Gradient: 0% B to 30% B in 4.2 min, holding 30% B for 1 min, 30% B to 0% B in 0.01 min, holding 0% B for 1.09 min and then end. Method B (0-60AB_6MIN) • Flow Rate: 0.8 ml/min • Gradient: 0% B to 60% B in 4.2 min, holding 60% B for 1 min, 60% B to 0% B in 0.01 min, holding 0% B for 1.09 min and then end. Method C (10-80AB_6MIN) • Flow Rate: 0.8 ml/min • Gradient: 10% B to 80% B in 4.2 min, holding 80% B for 1 min, 80% B to 10% B in 0.01 min, holding 10% B for 1.09 min and then end. […]

T1 sequence (O14744 with tags, fused parts or gaps): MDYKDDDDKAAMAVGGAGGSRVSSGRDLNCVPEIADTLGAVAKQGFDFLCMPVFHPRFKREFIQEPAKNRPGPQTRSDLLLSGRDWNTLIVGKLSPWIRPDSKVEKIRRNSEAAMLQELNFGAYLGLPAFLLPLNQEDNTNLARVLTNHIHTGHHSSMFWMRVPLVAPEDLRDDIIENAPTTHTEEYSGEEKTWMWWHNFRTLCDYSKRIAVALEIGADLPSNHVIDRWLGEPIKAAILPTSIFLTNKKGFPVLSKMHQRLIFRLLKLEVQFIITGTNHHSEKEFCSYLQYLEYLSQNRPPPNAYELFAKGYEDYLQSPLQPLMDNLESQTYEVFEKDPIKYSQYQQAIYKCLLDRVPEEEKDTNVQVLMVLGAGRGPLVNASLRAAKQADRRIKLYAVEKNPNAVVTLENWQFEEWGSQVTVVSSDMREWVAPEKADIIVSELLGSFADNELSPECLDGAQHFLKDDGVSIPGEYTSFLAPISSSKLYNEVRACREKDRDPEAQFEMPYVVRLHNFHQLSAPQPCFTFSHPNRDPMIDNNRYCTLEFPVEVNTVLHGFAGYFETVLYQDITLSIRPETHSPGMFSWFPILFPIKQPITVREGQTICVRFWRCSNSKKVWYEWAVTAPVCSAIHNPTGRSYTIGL
T1 sequence (Q9BQA1 with tags, fused parts or gaps partner limits assumed): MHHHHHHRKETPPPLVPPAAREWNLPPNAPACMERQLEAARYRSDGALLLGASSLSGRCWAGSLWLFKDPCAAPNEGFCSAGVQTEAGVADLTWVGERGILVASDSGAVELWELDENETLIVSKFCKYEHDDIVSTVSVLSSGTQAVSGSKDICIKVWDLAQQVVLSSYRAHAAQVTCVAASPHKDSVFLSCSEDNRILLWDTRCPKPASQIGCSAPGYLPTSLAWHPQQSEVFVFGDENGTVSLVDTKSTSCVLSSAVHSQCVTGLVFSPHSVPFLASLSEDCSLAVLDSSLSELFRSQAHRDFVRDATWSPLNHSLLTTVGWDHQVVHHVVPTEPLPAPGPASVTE

Row | Compound | IC50
1 | O=C(NC1CCOCC1)c1cc(=O)n(CC(O)CN2CCc3ccccc3C2)cn1 (centres unmarked) [Compound 34] | 1000 to 10000 nM
2 | O=C(NC1CCOCC1)c1ccn(CC(O)CN2CCc3ccccc3C2)c(=O)c1 (centres unmarked) [Compound 33] | 101 to 1000 nM
